Test results published in patent publication US11414385B2, “Compounds and methods for treating, detecting, and identifying compounds to treat apicomplexan parasitic diseases” (The University of Chicago, priority 2015, dated 2022).
Values after ≈ are worked out from the molar mass of the structure shown.

Key:
[1] = target: hERG (Homo sapiens, UniProt Q12809); experiment: hERG profile
[2] = target: T1, bovine cytochrome bc (Bos taurus, UniProt P00157); experiment: Binding assays with bovine cytochrome bc1
T1 construct: Whole bovine heart was collected directly from slaughter and transported on ice to the cold room; from tissue; host or cells: bovine heart mitochondria, DDM-solubilised, column-purified

[3] = tested on: S. cerevisiae M221Q and M221F cytochrome b mutants; experiment: Yeast growth inhibition, cytochrome b Qi mutants; assay type: cell-based, Saccharomyces cerevisiae
Description: Three S. cerevisiae strains were used: M221Q and M221F cytochrome b mutants and wild type. They share the same nuclear genetic background deriving from AD1-9 (kindly given by M. Ghislain, UCL, Belgium). AD1-9 harbors multiple deletions in the ABC transporter genes that render the strain more sensitive to drugs than standard yeast strains^S65.
Cytochrome b mutant M221F was generated by mitochondrial transformation as described. M221 Q was selected as suppressor from a respiratory deficient mutant. Analysis of revertants from respiratory deficient mutants within the center N of cytochrome b in Saccharomyces cerevisiae.
Protocol: Yeast strains were grown over 48 hours at 33° C. in liquid YPG medium [1% yeast extract, 2% (wt/vol) peptone, and 3% (vol/vol) glycerol). Cultures were diluted to an OD600 of 0.05 and grown for 2 hrs. Cultures were then combined with YPG containing 6% melted agar for a total volume of 15-20 mL and poured onto OmniTray single-well rectangular plates that measured 86 mm by 128 mm (ThermoScientific). Filter paper disks (7 mm diameter, […]) were placed onto the cooled agar plates. […] Images were obtained after 4 days using GelDoc XR Imaging System (BioRad) and Quantity One software. Drug effect was assessed by the presence and size of a zone of inhibition around the disks.

[4] = FaSSIF solubility pH 6.5; assay type: physicochemical

Chain of hERG (Q12809 whole entry): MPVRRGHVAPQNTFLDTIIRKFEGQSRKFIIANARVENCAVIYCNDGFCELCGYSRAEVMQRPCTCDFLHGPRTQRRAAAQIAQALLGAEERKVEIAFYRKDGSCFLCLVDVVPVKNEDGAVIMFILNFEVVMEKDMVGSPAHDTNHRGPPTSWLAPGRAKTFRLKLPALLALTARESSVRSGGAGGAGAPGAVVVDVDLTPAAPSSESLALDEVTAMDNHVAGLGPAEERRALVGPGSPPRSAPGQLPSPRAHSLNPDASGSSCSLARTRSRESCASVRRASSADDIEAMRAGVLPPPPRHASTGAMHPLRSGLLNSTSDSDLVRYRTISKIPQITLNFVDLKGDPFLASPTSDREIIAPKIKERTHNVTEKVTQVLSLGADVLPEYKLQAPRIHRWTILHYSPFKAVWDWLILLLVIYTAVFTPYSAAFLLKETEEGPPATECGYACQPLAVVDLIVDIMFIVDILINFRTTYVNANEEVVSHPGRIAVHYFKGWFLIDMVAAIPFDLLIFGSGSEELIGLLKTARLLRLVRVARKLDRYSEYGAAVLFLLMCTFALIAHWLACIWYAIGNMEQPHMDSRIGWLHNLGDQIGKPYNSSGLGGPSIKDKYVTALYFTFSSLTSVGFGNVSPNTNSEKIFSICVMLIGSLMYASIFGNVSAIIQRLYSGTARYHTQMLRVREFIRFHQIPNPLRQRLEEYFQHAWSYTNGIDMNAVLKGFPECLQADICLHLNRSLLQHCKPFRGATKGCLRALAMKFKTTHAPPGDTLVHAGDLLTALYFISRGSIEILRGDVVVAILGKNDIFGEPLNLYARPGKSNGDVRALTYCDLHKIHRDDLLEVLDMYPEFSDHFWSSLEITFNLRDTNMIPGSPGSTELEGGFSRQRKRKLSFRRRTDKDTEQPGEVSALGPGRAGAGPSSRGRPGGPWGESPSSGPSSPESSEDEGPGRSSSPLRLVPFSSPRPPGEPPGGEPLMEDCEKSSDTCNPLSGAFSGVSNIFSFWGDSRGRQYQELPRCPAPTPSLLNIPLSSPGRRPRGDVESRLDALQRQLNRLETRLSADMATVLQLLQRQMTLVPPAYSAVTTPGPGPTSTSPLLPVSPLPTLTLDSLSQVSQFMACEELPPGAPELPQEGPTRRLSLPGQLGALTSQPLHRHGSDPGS

Row | SMILES | hERG profile [1] | inhibition of bovine Cytbc1 [2] | binding affinity to bovine cytochrome bc ([2]; in comparison with previous compounds) | growth inhibition of M221Q / M221F yeast [3] | solubility ([4]; FaSSIF, pH 6.5, fassif) | improved FaSSIF/FeSSIF (pH 6.5) solubility ([4]; relative to ELQ 271)
1 | Cc1[nH]c2c(c(=O)c1-c1ccc(Oc3ccc(OC(F)(F)F)cc3)cc1)CCCC2 [JAG21, 2-methyl-3-(4-(4-(trifluoromethoxy)phenoxy)phenyl)-5,6,7,8-tetrahydroquinolin-4(1H)-one] | clean | but not fully | lower binding affinity |  |  | 
2 | Cc1[nH]c2c(c(=O)c1-c1ccc(Oc3ccccc3)cc1)CCCC2 [MJM170] |  |  |  | resistant | 9.8 µM (≈ 3.25 µg/mL) | 3 fold
